Assay results taken from patent US20250289814A1, “COMPOUNDS AS PARP1 INHIBITIORS” (NINGBO NEWBAY TECHNOLOGY DEVELOPMENT CO., LTD., priority 2022, published 2025).
≈ marks a conversion by molar mass, not a printed value. Where “and” joins values, the source holds several entries; their conditions need not be identical. Identical values can stand only once. Like-named read-outs stand apart in the source and are kept apart here.

How the values were obtained:
DLD1-BRCA2−/− cells = assay: Cell proliferation assay in DLD1-BRCA2−/− cell lines (CellTiter-Glo, 7 days); type: cell-based; settings: Homo sapiens, DLD-1, 168 h
Outline: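 Cells in RPMI 1640 + 10% FBS seeded overnight, then exposed to compound or vehicle for 7 days at 37 °C, 5% CO2. Viability read on day 8 by CellTiter-Glo luminescence; % inhibition fitted to a four-parameter logistic curve for IC50.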

[1] = biological target: Recombinant full length PARP2 (Homo sapiens (Human), UniProt Q9UGN5); assay: FP assay PARP2 (fluorescence anisotropy probe displacement); type: binding; settings: 60 nM PARP2, 8 nM fluorescent probe, 4 h, room temperature
Sequence of Recombinant full length PARP2 (Q9UGN5 whole entry): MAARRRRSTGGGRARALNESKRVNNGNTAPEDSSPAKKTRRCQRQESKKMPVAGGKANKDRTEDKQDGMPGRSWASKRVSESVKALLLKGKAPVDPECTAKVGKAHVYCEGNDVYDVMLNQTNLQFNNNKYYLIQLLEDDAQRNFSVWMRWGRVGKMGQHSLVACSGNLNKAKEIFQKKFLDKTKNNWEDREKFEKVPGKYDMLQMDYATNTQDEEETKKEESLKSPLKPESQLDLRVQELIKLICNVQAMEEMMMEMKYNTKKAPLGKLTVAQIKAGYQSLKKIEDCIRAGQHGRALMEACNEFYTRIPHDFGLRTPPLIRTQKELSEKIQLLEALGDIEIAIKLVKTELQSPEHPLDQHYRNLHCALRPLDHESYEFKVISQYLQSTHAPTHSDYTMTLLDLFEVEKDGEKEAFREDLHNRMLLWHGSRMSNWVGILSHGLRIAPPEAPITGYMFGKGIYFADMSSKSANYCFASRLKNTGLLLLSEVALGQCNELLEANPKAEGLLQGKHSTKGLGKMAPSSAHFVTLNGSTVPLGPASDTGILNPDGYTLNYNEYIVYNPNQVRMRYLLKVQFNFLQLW
Outline: (§1)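 Full-length human PARP1 (20 nM) or PARP2 (60 nM), diluted with an equal volume of 8 nM fluorescent probe, incubated 4 h at room temperature in 50 mM Tris pH 8, 0.001% Triton X100, 10 mM MgCl2, 150 mM NaCl. Probe displacement read as polarization (ex 590/em 630 nm, mP). IC50 from four-parameter logistic fit of % inhibition.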

[2] = Thermodynamic solubility, FaSSiF; type: physicochemical
Procedure: All incubations were performed in duplicate. Test compound or the control compound diclofenac sodium (1.0 mg) were placed into 1.5 mL glass vials. FaSSIF (1000 μL) was added into the vials. The samples were transferred to Eppendorf Thermomixer Comfort plate shaker and shaken at 25° C., 1100 rpm for 24 hours. The samples were then filtered. The filtrate was diluted by 1000-fold with water:acetonitrile 1:1 (v/v) for analysis by UPLC MS/MS to determine the concentration of test compound. The solubility value was calculated by quantification against a standard of known concentration.

[3] = Kinetic solubility, PBS, pH7.4; type: physicochemical; settings: 300 μM test compound
Procedure: After incubation, the samples were filtered, and the filtrate was diluted by 1000-fold with water:acetonitrile 1:1 (v/v) for analysis by UPLC MS/MS to determine the concentration of test compound. The solubility value was calculated by quantification against a standard of known concentration.

[4] = Caco2 (A-B/B-A) permeability; type: in vitro ADME; settings: human
Outline: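 Bidirectional A-B and B-A transport of 5 μM compound across Caco-2 monolayers in HBSS (10 mM HEPES, pH 7.4), duplicate, ~37° C for 120 min. Donor and receiver levels measured by UPLC-MS/MS give Papp. Efflux ratio = PappB-A/PappA-B, with monolayer integrity checked by Lucifer yellow.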

[5] = biological target: Recombinant full length PARP1 (Homo sapiens (Human), UniProt P09874); assay: FP assay PARP1 (fluorescence anisotropy probe displacement); type: binding; settings: 20 nM PARP1, 8 nM fluorescent probe, 4 h, room temperature
Sequence of Recombinant full length PARP1 (P09874 whole entry): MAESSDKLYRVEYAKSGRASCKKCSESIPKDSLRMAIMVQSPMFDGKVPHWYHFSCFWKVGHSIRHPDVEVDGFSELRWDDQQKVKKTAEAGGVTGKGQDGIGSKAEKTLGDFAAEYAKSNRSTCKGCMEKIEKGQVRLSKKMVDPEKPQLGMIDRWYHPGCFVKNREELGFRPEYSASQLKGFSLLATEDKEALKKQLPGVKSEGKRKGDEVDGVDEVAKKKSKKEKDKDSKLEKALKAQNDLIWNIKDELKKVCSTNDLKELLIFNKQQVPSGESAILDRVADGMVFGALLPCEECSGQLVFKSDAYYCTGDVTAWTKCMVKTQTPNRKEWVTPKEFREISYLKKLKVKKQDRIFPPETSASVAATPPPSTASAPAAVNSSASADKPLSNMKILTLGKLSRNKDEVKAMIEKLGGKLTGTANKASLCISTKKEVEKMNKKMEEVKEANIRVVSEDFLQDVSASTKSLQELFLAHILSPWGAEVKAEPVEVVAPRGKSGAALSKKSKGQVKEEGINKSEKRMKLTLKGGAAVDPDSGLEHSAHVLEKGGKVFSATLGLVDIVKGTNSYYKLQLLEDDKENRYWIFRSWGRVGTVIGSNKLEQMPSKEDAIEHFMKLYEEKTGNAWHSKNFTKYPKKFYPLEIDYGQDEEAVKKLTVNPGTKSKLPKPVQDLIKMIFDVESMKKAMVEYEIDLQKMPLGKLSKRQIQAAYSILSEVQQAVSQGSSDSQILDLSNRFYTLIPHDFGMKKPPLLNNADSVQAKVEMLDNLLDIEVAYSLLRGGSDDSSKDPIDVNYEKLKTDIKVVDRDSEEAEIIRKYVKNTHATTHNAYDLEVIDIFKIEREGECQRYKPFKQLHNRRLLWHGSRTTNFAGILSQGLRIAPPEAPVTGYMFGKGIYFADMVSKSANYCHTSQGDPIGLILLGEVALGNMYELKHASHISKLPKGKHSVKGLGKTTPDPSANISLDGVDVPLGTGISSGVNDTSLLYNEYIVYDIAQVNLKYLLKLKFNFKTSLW
Outline: as §1

In the case of `CCc1cc2ncc([C@H](C)N3CC(Oc4ccc(C(=O)NC)nc4)C3)cc2[nH]c1=O` [Compound 5, (S)-5-((1-(1-(7-ethyl-6-oxo-5,6-dihydro-1,5-naphthyridin-3-yl)ethyl)azetidin-3-yl)oxy)-N-methylpicolinamide], the IC50 (DLD1-BRCA2−/− cells) is reported as 6.9 nM, the IC50 [1] is reported as 3120 nM and the “Thermodynamic Solubility, FaSSiF” value ([2]; 25° C., 24 hours) is reported as 145.89 µg/mL and 126.09 µg/mL. For the same compound, the solubility thermodynamic at 24 h ([2]; FaSSIF, 25 °C, thermodynamic from solid) was 107 µg/mL (≈ 262 µM), the solubility kinetic at 2 h ([3]; 25° C., read-out: Kinetic solubility, PBS, pH 7.4) was 281.58 µM (≈ 115 µg/mL) and the solubility kinetic at 2 h ([3]; PBS pH 7.4, 25 °C, pH 7.4, aqueous buffer, kinetic from dmso stock) was 250 µM (≈ 102 µg/mL). It also gave an efflux ratio at 120 min, 5 μM ([4]; Caco-2, pH 7.4, PappB-A/PappA-B, read-out: Caco2 efflux ratio (ER)) of 9.78, a Papp A→B at 120 min, 5 μM ([4]; Caco-2, pH 7.4, apical-to-basolateral, 5 μM, HBSS pH 7.4, 120 min, 37° C., read-out: Caco2 A-B apparent permeability (Papp)) of 3.39 ×10⁻⁶ cm/s and a Papp B→A at 120 min, 5 μM ([4]; Caco-2, pH 7.4, basolateral-to-apical, 5 μM, HBSS pH 7.4, 120 min, 37° C., read-out: Caco2 B-A apparent permeability (Papp)) of 33.2 ×10⁻⁶ cm/s. It also gave an IC50 [5] of 5.2 nM.
